The source of these data is patent publication US20090105259A1, “Acyclic 1,4-Diamines and Uses Thereof” (priority 2005, published 2009).

The target in test [1] is T1, TRPV4 channel receptors (Homo sapiens, UniProt Q9HBA0).
T1 construct: obtained using this method in human articular chondrocytes; endogenous in cells; host or cells: human articular chondrocytes
Description: Ca2+ influx through TRPV4 channel receptors, Fura-2 fluorescence on FlexStation, human articular chondrocytes. It counts as cell-based. The note with it: Fura-2, FlexStation. From the text: (§1) Ca^2+ influx mediated through TRPV4 channel receptors can be measured using articular chondrocytes from such species as, but not limited to, human, rat, canine, rabbit, monkey, and bovine, using standard techniques in the art such as, but not limited to, Fura-2 (Invitrogen/Molecular Probes, Eugene, Oreg.) fluorescence using a FlexStation (manufactured by Molecular Devices, Sunnyvale, Calif.). Table 1 lists biological data for several representative compounds obtained using this method in bovine articular chondrocytes.
Table 2 lists biological data for several representative compounds obtained using this method in human articular chondrocytes.
(§2) All exemplary compounds of the present invention were assessed using at least one of the biological assays presented above. Compounds presented in the Examples had EC50 values of about 0.01 μM to 10 μM as measured by Flex Station using bovine and/or human articular chondrocytes.

Test [2] concerns the target T2, TRPV4 channel receptors (Bos taurus, UniProt A0A8F4X677).
T2 construct: obtained using this method in bovine articular chondrocytes; endogenous in cells; host or cells: bovine articular chondrocytes
Kind of test: Ca2+ influx through TRPV4 channel receptors, Fura-2 fluorescence on FlexStation, bovine articular chondrocytes. It counts as cell-based. The note with it: Fura-2, FlexStation.
Description: as §1, §2

Structures are written as SMILES.

T1 sequence (Q9HBA0 whole entry): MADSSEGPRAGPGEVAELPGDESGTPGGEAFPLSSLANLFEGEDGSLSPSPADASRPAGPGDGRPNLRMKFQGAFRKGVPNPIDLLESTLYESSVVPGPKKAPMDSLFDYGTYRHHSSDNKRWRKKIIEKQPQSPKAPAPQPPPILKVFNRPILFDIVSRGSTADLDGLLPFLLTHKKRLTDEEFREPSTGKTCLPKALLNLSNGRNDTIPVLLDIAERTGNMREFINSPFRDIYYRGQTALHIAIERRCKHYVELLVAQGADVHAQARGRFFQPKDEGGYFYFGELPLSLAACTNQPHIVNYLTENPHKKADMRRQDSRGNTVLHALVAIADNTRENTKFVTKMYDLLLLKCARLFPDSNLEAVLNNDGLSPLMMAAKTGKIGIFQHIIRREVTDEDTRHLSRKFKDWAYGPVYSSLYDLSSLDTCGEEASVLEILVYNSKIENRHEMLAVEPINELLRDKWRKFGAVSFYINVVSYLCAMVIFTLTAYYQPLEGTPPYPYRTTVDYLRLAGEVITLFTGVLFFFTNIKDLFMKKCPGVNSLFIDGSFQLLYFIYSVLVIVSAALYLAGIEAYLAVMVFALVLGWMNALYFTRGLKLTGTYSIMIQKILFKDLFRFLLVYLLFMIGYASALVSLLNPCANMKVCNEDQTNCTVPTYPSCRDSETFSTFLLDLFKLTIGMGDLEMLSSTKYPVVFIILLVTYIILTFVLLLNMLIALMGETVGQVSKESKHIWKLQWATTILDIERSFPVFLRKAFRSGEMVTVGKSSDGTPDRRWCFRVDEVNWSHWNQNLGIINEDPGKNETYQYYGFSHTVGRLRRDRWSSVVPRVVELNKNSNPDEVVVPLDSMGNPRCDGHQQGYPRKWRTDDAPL
T2 sequence (A0A8F4X677 1-871): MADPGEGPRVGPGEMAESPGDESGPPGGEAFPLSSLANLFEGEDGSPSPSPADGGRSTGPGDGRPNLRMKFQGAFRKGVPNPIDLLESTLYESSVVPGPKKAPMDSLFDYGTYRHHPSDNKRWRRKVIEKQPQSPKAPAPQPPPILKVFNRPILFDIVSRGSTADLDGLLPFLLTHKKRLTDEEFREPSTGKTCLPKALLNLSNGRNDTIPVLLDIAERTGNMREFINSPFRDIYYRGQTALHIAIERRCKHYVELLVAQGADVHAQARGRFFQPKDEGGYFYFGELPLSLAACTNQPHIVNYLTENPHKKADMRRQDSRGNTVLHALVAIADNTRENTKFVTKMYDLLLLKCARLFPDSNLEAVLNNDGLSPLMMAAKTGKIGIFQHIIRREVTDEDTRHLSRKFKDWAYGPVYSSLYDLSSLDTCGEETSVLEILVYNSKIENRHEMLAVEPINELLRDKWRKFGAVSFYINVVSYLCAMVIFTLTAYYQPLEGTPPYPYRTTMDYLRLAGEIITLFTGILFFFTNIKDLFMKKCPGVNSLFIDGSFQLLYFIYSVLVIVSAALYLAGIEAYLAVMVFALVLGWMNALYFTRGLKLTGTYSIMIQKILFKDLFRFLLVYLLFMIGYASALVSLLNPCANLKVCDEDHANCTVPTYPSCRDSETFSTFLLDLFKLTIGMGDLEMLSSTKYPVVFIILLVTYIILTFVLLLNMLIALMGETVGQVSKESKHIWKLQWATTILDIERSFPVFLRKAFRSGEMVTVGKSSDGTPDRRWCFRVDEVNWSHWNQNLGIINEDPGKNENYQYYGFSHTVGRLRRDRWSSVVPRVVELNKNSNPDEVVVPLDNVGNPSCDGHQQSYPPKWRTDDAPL

Regarding `CC(C)C[C@H](NC(=O)c1cc2ccccc2s1)C(=O)NCCCCNS(=O)(=O)c1ccc(Br)cc1Cl` [Example 3, N-((1S)-1-{[(4-{[(4-Bromo-2-chlorophenyl)sulfonyl]amino}butyl)amino]carbonyl}-3-methylbutyl)-1-benzothiophene-2-carboxamide], the EC50 in test [1] lay in the range of 30 to 90 nM; in test [2], 30 to 60 nM. Regarding `CC(C)C[C@H](NC(=O)c1cc2ccccc2s1)C(=O)NCCCCNS(=O)(=O)c1ccc(F)cc1Cl` [Example 5, N-((1S)-1-{[(4-{[(2-Chloro-4-fluorophenyl)sulfonyl]amino}butyl)amino]carbonyl}-3-methylbutyl)-1-benzothiophene-2-carboxamide], in test [2], the half-maximal effective concentration (EC50) was 70 to 100 nM. As to `Cc1c(C(=O)N[C@@H](CC(C)C)C(=O)NCCCCNS(=O)(=O)c2ccc(Cl)cc2Cl)oc2cccnc12` [Example 6, N-((1S)-1-{[(4-{[(2,4-Dichlorophenyl)sulfonyl]amino}butyl)amino]carbonyl}-3-methylbutyl)-3-methylfuro[3,2-b]pyridine-2-carboxamide], the EC50 in test [1] was 100 to 1000 nM. Regarding `CC(C)C[C@H](NC(=O)c1nc2ccccc2s1)C(=O)NCCCCNS(=O)(=O)c1ccc(F)cc1Cl` [Example 50, N-((1S)-1-{[(4-{[(2-Chloro-4-fluorophenyl)sulfonyl]amino}butyl)amino]carbonyl}-3-methylbutyl)-1,3-benzothiazole-2-carboxamide], in test [1], the EC50 lay in the range of 1000 to 10000 nM.

The term EC50 denotes the concentration giving half of the maximal effect.
